For series [1] the following is noted: background statement; cited from earlier work.
The conditions of series [2]: rat, in vivo, sc.
Experimental: (§1) Pharmacokinetic studies of the subcutaneous dosing of the DXM PK studies discussed herein were performed in rats where bolus DXM was compared to various formulations of DXM-MVLs at doses between 0.21-0.42 mg/kg. Female Sprague Dawley rats supplied by Absorption Systems weighing about 310 g received subcutaneous injections of either a bolus of unencapsulate (free or unencapsulated) DXM dissolved in H3PO4 solution or one the of the DXM-MVL formulations suspended in saline or buffered saline (20 mM phosphate). Injections were made on the left lateral hind limb of each rat using 100 μL syringes fitted with 25G needles. Each treatment group contained 3 rats.
(§2) Plasma samples were collected at different times points (0.5, 1, 2, 6, 12, 24, 48, 72 & 96 hour post dose) for analysis. Blood samples were collected via the right saphenous vein using a 19 gauge needle prick or cardiac puncture for the final time point, placed into chilled tubes containing the appropriate anticoagulant, inverted several times to mix, protected from light, and kept on ice until centrifugation.
Another series in a line: in vivo. To be noted: female, Sprague Dawley, rat, sc.

SMILES strings stand for the structures.

Experimental for in vivo: as §1, §2

The Tmax is the time from dosing to the highest level. The term half-life denotes how long it takes for the measured level to halve. `Cc1cccc([C@H](C)c2cnc[nH]2)c1C` [Unencapsulated DXM solution, dexmedetomidine]: the t1/2 in series [1] is listed as 2 h. This compound showed an AUC/Dose in series [2] (female, Sprague Dawley) of 383 pg·h/mL/mg/kg. Also, in series [2], the Cmax/Cavg is listed as 2.3 and the “time at which plasma DXM levels peaked” value is on record as “within an hour”. In “in vivo”, the Tmax was found to be 30 min and the half-life is 120 min.

The values are drawn from US20220273568A1, “MULT[…] FORMULATIONS OF DEXMEDETOMIDINE” (Pacira Pharmaceuticals, Inc., priority 2019, published 2022).
